# Results reported in patent US6623933B1 (priority 1999, dated 2003).
# pEC50: −log10 of the molar value. Structures can show the parent of a compound that is named as a salt. Where two headings read alike, the source gives them in different places.
# Experiments:
# [1] = target: NR1000/NR2A (Rattus norvegicus, UniProt P35439+Q00959); set-up: agonist Emax: dose or concentration left out as unconfirmed
# [2] = target: NR1100/NR2A (Rattus norvegicus, UniProt P35439+Q00959); set-up: agonist nHill / agonist Emax: dose or concentration left out as unconfirmed
# [3] = target: T1, NR1011/NR2A (Rattus norvegicus, UniProt P35439+Q00959); experiment: NMDA-induced currents of NR1 splice variants, Xenopus oocytes, Example 4; format: cell-based; set-up: expressed in transfected cells; host or cells: Xenopus oocytes injected with NR1011 and NR2A mRNA; details: for maximum relative current (MRC) / percentage potentiation of the maximum NMDA response / NMDA nH / pEC50: NR1011/2A; for pEC50: read-out: NMDA EC50
# Method: Overnight cultures (500 ml) of transformed bacterial cells were prepared in order to grow sufficient quantities for maxiprep isolation of the plasmid CDNA. Maxipreps were done using a Sorvall RC-5B ultracentrifuge, Qiagen columns and cDNA was quantitated with spectrophotometry (OD260 and OD260/ OD280 ratio). The resulting plasmid cDNA was linearized by digestion with an appropriate restriction enzyme that cleaves distal to the cDNA insert (XhoI for NR2A or NotI for NR1100, NR1000, NR1111, NR1011, NR1101, NR1001). […] The samples were stored at −20° C. until use.
# In vitro transcription was performed using the Ambion mMessage mMachine kit with T7 (NR1100, NR1000, NR1111, NR1011, NR1101, NR1001) RNA polymerase. The reaction was assembled on ice and allowed to incubate at 37° C. for 1-2 hr. The resulting mRNA was precipitated (reaction termination) using lithium chloride/5 mM EDTA solution and dissolved in RNase-free H2O. The concentration (OD260) and OD260/OD280 ratio (should be more than 1.5) was determined by spectrophotometer. The yield of mRNA was generally 15-30 μg. mRNA was stored at −80° C. until use.
# Intracellular recording microelectrodes were fabricated from 100 μl borosilicate glass disposable micropipettes using a 2-step protocol on a standard horizontal Flaming-Brown micropipette puller.
# [4] = target: NR1001/NR2A (Rattus norvegicus, UniProt P35439+Q00959); set-up: agonist Emax: dose or concentration left out as unconfirmed
# [5] = target: NR1/NR2A (NR1100) (Rattus norvegicus, UniProt P35439+Q00959)
# Description: (§1) Plasmids containing the NR1100 (NR1G) and NR2A cDNA inserts were kindly provided by Dr. Nakanishi (Kyoto University Faculty of Medicine, Kyoto, Japan). Plasmids containing the NR2B, NR2C and NR2D cDNA inserts were kindly provided by Dr. P. Seeburg (Heidelberg University, Heidelberg, Germany). Plasmids were linearized with appropriate restriction enzyme prior to in vitro transcription using the Message Machine kit (Ambion, Inc., Austin, Tex.).
# (§2) Female, oocyte-positive Xenopus laevis frogs were purchased from Xenopus I (Dexter, Mich.). […] Oocytes were injected with 50 nL of RNA solutions using an electronic microinjector (Drummond Inc., Broomall, Pa.). […] The injected oocytes were used for experiments following 1-5 days of incubation in Barth's solution at 18-20° C.
# (§3) The microelectrodes were fabricated from borosilicate glass capillaries with a programmed puller (Sutter Instrument Co., Calif.). Microelectrode resistance was 1-3 MΩ_when filled with 3 M KCl.
# (§4) Except where otherwise stated, oocytes were clamped at a holding potential of −70 mV during data acquisition. The membrane current was filtered at 500 Hz and sampled at 100 Hz. Drugs were applied using a gravity-driven external perfusion system. The working volume of the recording chamber was 30 μl and the rate of the perfusion was 50 μl/sec. The drug application lasted 10 sec and was followed by 60 s wash. Data acquisition and external perfusion were controlled using custom-written software implemented in the SuperScope II development environment (GW Instruments, Mass.). All experiments were performed at room temperature of 22-24° C. Peak or steady-state current measurements were normalized and expressed as a fraction of the peak or steady-state control current measurements, which were performed before and after application of every single concentration of agonists or steroids.
# (§5) Concentration-response data were analyzed by nonlinear regress ion using the logistic equation Response=Emax/(1+(EC50/c)^nH), where c is concentration, Emaxis the maximum response, nHis the Hill coefficient. The data are presented as mean±SEM. EC50values are averaged as logarithms (De Lean et al., Am. J. Physiol. 235: E97-E102 (1978))±the SEM of the log EC50. […] The pooled data were simultaneously fitted to the logistic equation, either with Emax and EC50 constrained to be identical in the presence and absence of PS, or allowing one or both to vary independently. […] This was regarded as indicating a significant treatment effect of PS, but the change in EC50and Emaxwas not considered significant. […] No attempt was made to test the generally small changes in nHfor statistical significance.
# [6] = target: NR1101/NR2A (Rattus norvegicus, UniProt P35439+Q00959); set-up: agonist Emax: dose or concentration left out as unconfirmed
# [7] = target: T1, NR1011/NR2A; set-up: agonist Emax: dose or concentration left out as unconfirmed
# [8] = target: NR1/NR2D (NR1100) (Rattus norvegicus, UniProt P35439+Q62645)
# NR1/NR2D (NR1100), sequence (Q62645 28-1323, other chains not shown): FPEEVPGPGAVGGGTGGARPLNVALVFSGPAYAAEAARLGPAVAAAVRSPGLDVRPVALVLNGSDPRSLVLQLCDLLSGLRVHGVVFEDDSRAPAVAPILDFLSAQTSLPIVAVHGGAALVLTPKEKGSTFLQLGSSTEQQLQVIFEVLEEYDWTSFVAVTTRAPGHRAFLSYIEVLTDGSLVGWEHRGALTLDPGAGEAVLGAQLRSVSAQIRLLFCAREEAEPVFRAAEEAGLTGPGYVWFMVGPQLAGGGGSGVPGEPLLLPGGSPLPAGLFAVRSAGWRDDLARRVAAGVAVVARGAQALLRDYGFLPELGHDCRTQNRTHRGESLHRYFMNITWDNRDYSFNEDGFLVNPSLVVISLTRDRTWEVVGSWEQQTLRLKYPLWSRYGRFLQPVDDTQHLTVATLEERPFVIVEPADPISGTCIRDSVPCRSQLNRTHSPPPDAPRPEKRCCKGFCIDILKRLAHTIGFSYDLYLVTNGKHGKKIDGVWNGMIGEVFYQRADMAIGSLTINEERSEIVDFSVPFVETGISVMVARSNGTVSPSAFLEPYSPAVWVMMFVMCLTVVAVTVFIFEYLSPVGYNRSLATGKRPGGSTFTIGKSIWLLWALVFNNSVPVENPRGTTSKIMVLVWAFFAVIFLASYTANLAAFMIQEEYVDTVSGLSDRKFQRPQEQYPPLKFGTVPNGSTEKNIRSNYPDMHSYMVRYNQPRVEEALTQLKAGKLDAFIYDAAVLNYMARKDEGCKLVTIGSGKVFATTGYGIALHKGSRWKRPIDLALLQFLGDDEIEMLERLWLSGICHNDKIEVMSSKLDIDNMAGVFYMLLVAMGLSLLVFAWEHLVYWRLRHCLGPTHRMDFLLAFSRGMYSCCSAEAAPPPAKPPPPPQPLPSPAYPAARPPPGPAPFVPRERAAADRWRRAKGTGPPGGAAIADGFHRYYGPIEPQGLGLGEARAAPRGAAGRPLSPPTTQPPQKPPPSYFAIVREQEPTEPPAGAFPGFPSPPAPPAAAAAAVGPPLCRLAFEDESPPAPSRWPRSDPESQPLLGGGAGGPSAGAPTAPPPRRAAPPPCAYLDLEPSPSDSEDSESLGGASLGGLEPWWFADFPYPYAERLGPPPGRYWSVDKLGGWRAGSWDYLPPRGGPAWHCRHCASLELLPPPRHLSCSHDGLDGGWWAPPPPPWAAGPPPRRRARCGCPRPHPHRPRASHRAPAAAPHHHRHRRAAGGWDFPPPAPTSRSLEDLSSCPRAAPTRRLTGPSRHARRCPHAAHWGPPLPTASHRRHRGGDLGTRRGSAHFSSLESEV
# Description: as §1, §2, §3, §4, §5
# [9] = target: NR1010/NR2A (Rattus norvegicus, UniProt P35439+Q00959); set-up: agonist nHill / agonist Emax: dose or concentration left out as unconfirmed
# [10] = target: NR1/NR2C (NR1100) (Rattus norvegicus, UniProt P35439+Q00961)
# NR1/NR2C (NR1100), sequence (Q00961 20-1237, other chains not shown): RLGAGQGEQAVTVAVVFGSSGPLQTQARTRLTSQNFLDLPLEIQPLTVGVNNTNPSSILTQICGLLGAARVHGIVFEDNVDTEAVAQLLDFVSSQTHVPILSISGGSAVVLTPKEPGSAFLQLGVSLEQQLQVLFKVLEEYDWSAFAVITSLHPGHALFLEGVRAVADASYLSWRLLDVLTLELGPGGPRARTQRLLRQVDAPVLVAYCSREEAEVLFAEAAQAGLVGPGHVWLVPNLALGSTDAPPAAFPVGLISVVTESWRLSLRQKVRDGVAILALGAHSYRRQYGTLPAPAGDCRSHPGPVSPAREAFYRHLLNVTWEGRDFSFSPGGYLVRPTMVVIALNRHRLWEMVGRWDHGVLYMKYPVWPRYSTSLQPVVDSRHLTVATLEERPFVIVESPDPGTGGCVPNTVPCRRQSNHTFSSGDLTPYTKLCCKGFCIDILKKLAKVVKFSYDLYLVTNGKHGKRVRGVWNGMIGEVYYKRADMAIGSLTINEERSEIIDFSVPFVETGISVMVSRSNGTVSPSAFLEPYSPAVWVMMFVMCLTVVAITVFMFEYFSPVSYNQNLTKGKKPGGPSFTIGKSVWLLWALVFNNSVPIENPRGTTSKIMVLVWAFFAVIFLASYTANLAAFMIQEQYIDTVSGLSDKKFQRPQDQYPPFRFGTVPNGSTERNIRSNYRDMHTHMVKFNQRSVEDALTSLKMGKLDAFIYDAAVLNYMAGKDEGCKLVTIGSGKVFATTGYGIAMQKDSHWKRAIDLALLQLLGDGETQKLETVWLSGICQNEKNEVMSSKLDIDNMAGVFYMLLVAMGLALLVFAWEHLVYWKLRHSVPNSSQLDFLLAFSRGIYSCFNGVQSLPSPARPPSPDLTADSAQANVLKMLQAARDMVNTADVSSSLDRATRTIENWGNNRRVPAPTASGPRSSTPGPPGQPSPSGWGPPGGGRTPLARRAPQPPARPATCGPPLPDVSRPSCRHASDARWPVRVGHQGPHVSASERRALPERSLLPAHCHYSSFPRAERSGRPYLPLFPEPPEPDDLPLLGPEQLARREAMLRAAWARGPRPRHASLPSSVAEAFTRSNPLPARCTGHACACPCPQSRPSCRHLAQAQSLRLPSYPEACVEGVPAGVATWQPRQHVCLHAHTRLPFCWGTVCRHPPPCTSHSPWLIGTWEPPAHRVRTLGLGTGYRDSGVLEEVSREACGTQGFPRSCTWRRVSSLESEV
# Description: as §1, §2, §3, §4, §5
# [11] = target: NR1/NR2B (NR1100) (Rattus norvegicus, UniProt P35439+Q00960)
# NR1/NR2B (NR1100), sequence (Q00960 27-1482, other chains not shown): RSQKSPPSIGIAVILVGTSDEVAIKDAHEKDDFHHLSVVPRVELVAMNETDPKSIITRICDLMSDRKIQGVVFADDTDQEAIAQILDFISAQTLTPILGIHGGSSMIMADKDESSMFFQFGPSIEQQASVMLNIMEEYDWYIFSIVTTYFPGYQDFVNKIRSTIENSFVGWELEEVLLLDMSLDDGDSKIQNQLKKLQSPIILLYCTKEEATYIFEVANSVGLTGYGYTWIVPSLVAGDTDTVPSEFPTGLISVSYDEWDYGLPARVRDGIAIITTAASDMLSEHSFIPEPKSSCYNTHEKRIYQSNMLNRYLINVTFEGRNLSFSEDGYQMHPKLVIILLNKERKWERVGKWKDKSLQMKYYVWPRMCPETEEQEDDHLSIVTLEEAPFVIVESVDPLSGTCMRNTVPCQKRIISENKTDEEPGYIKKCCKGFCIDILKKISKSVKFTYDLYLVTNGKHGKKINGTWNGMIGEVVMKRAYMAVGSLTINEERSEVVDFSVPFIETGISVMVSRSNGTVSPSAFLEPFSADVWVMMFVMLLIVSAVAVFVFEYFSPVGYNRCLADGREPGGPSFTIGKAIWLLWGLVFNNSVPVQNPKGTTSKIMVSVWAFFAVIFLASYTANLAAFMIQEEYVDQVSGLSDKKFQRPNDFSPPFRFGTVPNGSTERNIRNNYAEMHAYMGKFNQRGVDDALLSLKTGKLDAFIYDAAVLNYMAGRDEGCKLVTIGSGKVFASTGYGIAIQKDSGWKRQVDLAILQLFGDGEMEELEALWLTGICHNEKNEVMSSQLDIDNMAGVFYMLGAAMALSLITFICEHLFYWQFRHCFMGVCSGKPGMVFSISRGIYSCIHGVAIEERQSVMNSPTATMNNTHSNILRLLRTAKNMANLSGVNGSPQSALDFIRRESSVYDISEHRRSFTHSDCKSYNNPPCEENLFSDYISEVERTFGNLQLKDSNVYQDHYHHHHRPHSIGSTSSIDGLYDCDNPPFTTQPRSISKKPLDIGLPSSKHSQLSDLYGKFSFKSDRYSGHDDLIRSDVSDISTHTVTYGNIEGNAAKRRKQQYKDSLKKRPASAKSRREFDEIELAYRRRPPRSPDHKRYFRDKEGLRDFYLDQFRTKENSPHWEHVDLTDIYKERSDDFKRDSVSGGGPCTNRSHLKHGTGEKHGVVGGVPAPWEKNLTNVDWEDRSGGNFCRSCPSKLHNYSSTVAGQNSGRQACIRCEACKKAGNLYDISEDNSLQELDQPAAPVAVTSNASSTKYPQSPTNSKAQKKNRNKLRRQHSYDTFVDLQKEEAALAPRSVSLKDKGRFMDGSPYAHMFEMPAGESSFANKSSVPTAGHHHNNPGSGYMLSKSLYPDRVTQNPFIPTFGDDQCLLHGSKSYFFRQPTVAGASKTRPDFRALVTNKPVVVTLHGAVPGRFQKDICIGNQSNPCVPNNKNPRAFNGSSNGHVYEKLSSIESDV
# Description: as §1, §2, §3, §4, §5
# [12] = read-out: agonist EC50, +100 μM PS
molecule,measurement,setting,value
pregnenolone sulfate [PS],Maximum potentiation of NMDA-induced current by PS,[1]; NR1000/NR2A,2.14±0.08 fold
same,PS Emax,[1]; NR1000/NR2A,1.14 ± 0.08
same,PS nHill,[1]; NR1000/NR2A,1.31 ± 0.06
same,Maximum potentiation of NMDA-induced current by PS,[2]; NR1100/NR2A,1.67±0.07 fold
same,PS Emax,[2]; NR1100/NR2A,0.67 ± 0.07
same,PS nHill,[2]; NR1100/NR2A,1.33 ± 0.08
same,maximum relative current (MRC),"[3]; 100 μM PS, 200 μM NMDA+10 μM glycine, pH 7.5",1.41
same,maximum relative current (MRC),"[3]; 100 μM PS, pH 6.5",2.24
same,percentage potentiation of the maximum NMDA response,"[3]; 100 μM PS, pH 7.5",50%
same,maximum relative current (MRC),"[3]; 100 μM PS, pH 8.5",1.35
same,percentage potentiation of the maximum NMDA response,"[3]; 100 μM PS, pH 8.5",24%
same,difference in mrc between pH=6.5 and pH=7.5,"[3]; NR1011/NR2A, 100 μM PS",1.7 fold
same,Maximum potentiation of NMDA-induced current by PS,[4]; NR1001/NR2A,2.19±0.09 fold
same,PS Emax,[4]; NR1001/NR2A,1.19 ± 0.09
same,PS nHill,[4]; NR1001/NR2A,1.14 ± 0.10
same,PS nH,[5],1.33 ± 0.08
same,PS Emax (% Change),"[5]; 80 μM NMDA, 10 μM glycine",+167 ± 7%
same,enhancement of NMDA plus glycine current,"[5]; 100 μM PS, 80 μM NMDA",62±8%
same,Maximum potentiation of NMDA-induced current by PS,[6]; NR1101/NR2A,1.66±0.10 fold
same,PS Emax,[6]; NR1101/NR2A,0.66 ± 0.10
same,PS nHill,[6]; NR1101/NR2A,1.52 ± 0.24
same,Maximum potentiation of NMDA-induced current by PS,[7]; NR1011/NR2A,2.14±0.17 fold
same,PS Emax,[7]; NR1011/NR2A,1.14 ± 0.17
same,PS nHill,[7]; NR1011/NR2A,1.18 ± 0.18
same,PS nH,[8],1.16 ± 0.08
same,PS Emax (% Change),"[8]; 10 μM NMDA, 10 μM glycine",−70 ± 6%
same,inhibition of NMDA response,"[8]; 100 μM PS, 10 μM NMDA",26±1%
same,PS Emax,[9]; NR1010/NR2A,1.03 ± 0.09
same,PS nHill,[9]; NR1010/NR2A,1.30 ± 0.18
same,fold less potent as inhibitor of NR1/NR2C and NR1/NR2D than in potentiating NR1/NR2A and NR1/NR2B,[10],3.4- to 5.6 fold
same,PS nH,[10]; NR1/NR2C,1.32 ± 0.29
same,inhibition of NMDA-induced current,"[10]; NR1/NR2C, 100 μM PS, […] μM NMDA",35±3%
same,PS Emax (% Change),"[10]; NR1/NR2C, […] μM NMDA, 10 μM glycine",−63 ± 9%
same,PS nH,[11],1.42 ± 0.11
same,enhancement of NMDA-induced current,"[11]; 100 μM PS, […] μM NMDA",78±9%
same,PS Emax (% Change),"[11]; […] μM NMDA, 10 μM glycine",+202 ± 10%
"CC(=O)[C@H]1CC[C@H]2[C@@H]3CC[C@@H]4C[C@H](OS(=O)(=O)O)CC[C@]4(C)[C@H]3CC[C@]12C [3α5βS, 3α5β-pregnanolone sulfate]",3α5βS Emax,[1]; splice variant 000 /NR2A,−0.89 ± 0.01
same,3α5βS nHill,[1]; splice variant 000 /NR2A,0.98 ± .03
same,maximum extent of inhibition by 3α5βS,[2]; NR1100/NR2A,99±3%
same,3α5βS Emax,[2]; splice variant 100 /NR2A,−0.99 ± 0.03
same,3α5βS nHill,[2]; splice variant 100 /NR2A,0.83 ± 0.02
same,inhibition at 100 µM,"[3]; pH 7.5, read-out: percentage inhibition of the maximum NMDA response",56%
same,3α5βS Emax,[4]; splice variant 001 /NR2A,−0.89 ± 0.05
same,3α5βS nHill,[4]; splice variant 001 /NR2A,0.95 ± 0.11
same,3α5βS nH,[5],1.39 ± 0.07
same,3α5βS Emax,[6]; splice variant 101 /NR2A,−0.90 ± 0.07
same,3α5βS nHill,[6]; splice variant 101 /NR2A,1.05 ± 0.25
same,3α5βS Emax,[7]; splice variant 011 /NR2A,−0.86 ± 0.04
same,3α5βS nHill,[7]; splice variant 011 /NR2A,0.96 ± 0.06
same,3α5βS nH,[8],1.14 ± 0.16
same,3α5βS Emax,[9]; splice variant 010 /NR2A,−0.85 ± 0.02
same,3α5βS nHill,[9]; splice variant 010 /NR2A,1.04 ± 0.06
same,3α5βS nH,[10]; NR1/NR2C,1.34 ± 0.04
same,3α5βS nH,[11],1.06 ± 0.04
"CN[C@H](CC(=O)O)C(=O)O [NMDA, N-methyl-D-aspartate]",agonist Emax,"[1]; NR1000/NR2A, absence of PS",1.20 ± 0.05
same,agonist nHill,"[1]; NR1000/NR2A, absence of PS",1.31 ± 0.08
same,agonist nHill,"[1]; NR1000/NR2A, presence of 100 mM PS",1.18 ± 0.05
same,agonist Emax,"[1]; NR1000/NR2A, presence of PS",(1.55 ± 0.04)
same,agonist Emax,"[2]; NR1100/NR2A, absence of PS",1.36 ± 0.04
same,agonist nHill,"[2]; NR1100/NR2A, absence of PS",1.13 ± 0.04
same,agonist Emax,"[2]; NR1100/NR2A, presence",(1.60 ± 0.07
same,agonist nHill,"[2]; NR1100/NR2A, presence",1.20 ± 0.06
same,NMDA nH,"[3]; pH 7.5, +100 μM 3α5βS",1.35
same,NMDA nH,"[3]; pH 7.5, +100 μM PS",1.24
same,NMDA nH,"[3]; pH 7.5, control",1.47
same,NMDA nH,"[3]; pH 8.5, +100 μM PS",1.44
same,NMDA nH,"[3]; pH 8.5, control",1.62
same,pEC50,"[3]; pH 7.5, +100 μM 3α5βS",3.92
same,pEC50,"[3]; pH 7.5, +100 μM PS",4.17
same,pEC50,"[3]; pH 7.5, control, 10 μM glycine",4.15
same,pEC50,"[3]; pH 8.5, +100 μM PS",4.24
same,pEC50,"[3]; pH 8.5, control",4.03
same,agonist Emax,"[4]; NR1001/NR2A, absence of PS",1.27 ± 0.04
same,agonist nHill,"[4]; NR1001/NR2A, absence of PS",1.46 ± 0.07
same,agonist nHill,"[4]; NR1001/NR2A, presence of 100 mM PS",1.21 ± 0.15
same,agonist Emax,"[4]; NR1001/NR2A, presence of PS",(2.15 ± 0.17)
same,agonist Emax,[5]; +100 μM PS,1.60
same,agonist nH,[5]; +100 μM PS,1.20 ± 0.06
same,agonist nH,[5]; no PS,1.13 ± 0.04
same,agonist Emax,"[5]; no PS, normalized to 200 μM NMDA plus 10 μM glycine",1.36 ± 0.04
same,pEC50,[5]; [12],4.41
same,pEC50,"[5]; read-out: agonist EC50, no PS",4.14
same,agonist Emax,"[6]; NR1101/NR2A, absence of PS",1.33 ± 0.07
same,agonist nHill,"[6]; NR1101/NR2A, absence of PS",1.31 ± 0.05
same,agonist nHill,"[6]; NR1101/NR2A, presence of 100 mM PS",1.15 ± 0.12
same,agonist Emax,"[6]; NR1101/NR2A, presence of PS",(1.78 ± 0.06)
same,agonist Emax,"[7]; NR1011/NR2A, absence of PS",1.14 ± 0.02
same,agonist nHill,"[7]; NR1011/NR2A, absence of PS",1.39 ± 0.07
same,agonist nHill,"[7]; NR1011/NR2A, presence of 100 mM PS",1.11 ± 0.12
same,agonist Emax,"[7]; NR1011/NR2A, presence of PS",(1.68 ± 0.06)
same,agonist Emax,[8]; +100 μM PS,0.71
same,agonist nH,[8]; +100 μM PS,1.17 ± 0.01
same,agonist Emax,[8]; no PS,1.02 ± 0.01
same,agonist nH,[8]; no PS,1.26 ± 0.09
same,pEC50,"[8]; read-out: agonist EC50, +100 μM PS, unit cell empty",5.21
same,pEC50,"[8]; read-out: agonist EC50, no PS",5.10
same,agonist Emax,"[9]; NR1010/NR2A, absence of PS",1.18 ± 0.03
same,agonist nHill,"[9]; NR1010/NR2A, absence of PS",1.19 ± 0.06
same,agonist Emax,"[9]; NR1010/NR2A, presence of PS",(1.53 ± 0.08)
same,agonist nHill,"[9]; NR1010/NR2A, presence of PS",1.13 ± 0.09
same,agonist Emax,"[10]; NR1/NR2C, +100 μM PS",0.69
same,agonist nH,"[10]; NR1/NR2C, +100 μM PS",1.33 ± 0.03
same,agonist Emax,"[10]; NR1/NR2C, no PS",1.05 ± 0.01
same,agonist nH,"[10]; NR1/NR2C, no PS",1.18 ± 0.02
same,pEC50,"[10]; read-out: agonist EC50, NR1/NR2C, +100 μM PS",4.82
same,agonist Emax,[11]; +100 μM PS,1.47
same,agonist nH,[11]; +100 μM PS,1.32 ± 0.11
same,agonist Emax,[11]; no PS,1.00 ± 0.02
same,agonist nH,[11]; no PS,1.28 ± 0.08
same,pEC50,[11]; [12],4.92
